Legend:
[1] = Stability of the compound; type: physicochemical
[2] = Radioprotective activity in rat thymocytes assessed as radio-modification factor pretreated at 1 uM followed by 2 Gy X-ray irradiation measured after 4 hrs by flow cytometric analysis relative to control; type: ADME, cell-based; settings: thymocyte
[3] = Radioprotective activity in rat thymocytes assessed as radio-modification factor pretreated at 10 uM followed by 2 Gy X-ray irradiation measured after 4 hrs by flow cytometric analysis relative to control; type: ADME, cell-based; settings: thymocyte
Thymocyte [4] = assay: Toxicity in rat thymocytes assessed as increase in cell death at 1 uM measured after 4 hrs by flow cytometric analysis relative to control; type: cell-based
Thymocyte [5] = assay: Toxicity in rat thymocytes assessed as increase in cell death at 10 uM measured after 4 hrs by flow cytometric analysis relative to control; type: cell-based
Thymocyte [6] = assay: Toxicity in rat thymocytes assessed as increase in cell death at 100 uM measured after 4 hrs by flow cytometric analysis relative to control; type: cell-based
Thymocyte [7] = assay: Toxicity in rat thymocytes assessed as increase in cell death at 1000 uM measured after 4 hrs by flow cytometric analysis relative to control; type: cell-based
[8] = Radioprotective activity in rat thymocytes assessed as radio-modification factor pretreated at 100 uM followed by 2 Gy X-ray irradiation measured after 4 hrs by flow cytometric analysis relative to control; type: ADME, cell-based; settings: thymocyte
[9] = Radioprotective activity in rat thymocytes assessed as radio-modification factor pretreated at 1000 uM followed by 2 Gy X-ray irradiation measured after 4 hrs by flow cytometric analysis relative to control; type: ADME, cell-based; settings: thymocyte

SMILES	Stability [1]	Ratio [2]	Ratio [3]	Ratio [8]	Ratio [9]	Ratio (Thymocyte [4])	Ratio (Thymocyte [5])	Ratio (Thymocyte [6])	Ratio (Thymocyte [7])
COc1cc(/C=C/c2ccc(F)cc2)cc(OC)c1	–	1.34	1.26	–	–	< 5	< 5	> 10	> 10
COc1ccc(/C=C/c2cc(OC)ccc2OC)cc1	–	0.7	1.2	0.9	0.7	< 5	< 5	< 5	< 5
COc1cccc(/C=C/c2cc(OC)cc(OC)c2)c1	–	1.4	1.2	1.1	0.2	< 5	< 5	< 5	< 5
COc1ccc(/C=C/c2cccc(OC)c2)cc1	–	1	1.1	1.1	1.5	< 5	< 5	< 5	< 5
COc1ccc(/C=C/c2ccccc2OC)cc1	–	1.3	1.3	-0.2	0.2	< 5	< 5	< 5	5
COc1ccc(/C=C/c2ccc(OC)cc2)cc1	–	1.1	1	1.3	1.5	< 5	< 5	< 5	< 5
COc1ccc(/C=C/c2ccc(OC)c(OC)c2)cc1	–	0.8	1	0.7	0.5	< 5	< 5	< 5	5
Oc1ccc(/C=C/c2ccccc2O)cc1	–	0.4	0.7	0.5	–	5	< 5	5	> 10
COc1cc(/C=C/c2ccc(C)cc2)cc(OC)c1	Unstable	–	–	–	–	–	–	–	–
COc1cc(/C=C/c2ccc(OC(C)=O)cc2)cc(OC)c1	–	0.99	0.86	0.52	0.07	< 5	5	5	5
COc1cc(/C=C/c2ccccc2OC)cc(OC)c1	–	0.8	0.6	0.3	0.1	< 5	< 5	< 5	5
COc1cc(/C=C/c2ccc(NC(C)=O)cc2)cc(OC)c1	–	1.25	1.21	0.99	1.05	< 5	< 5	< 5	< 5
COc1ccc(/C=C/c2ccc(OC)c(OC)c2)cc1OC	–	0.4	1	0.4	0.3	< 5	< 5	5	5
Oc1ccc(/C=C/c2ccc(O)c(O)c2)cc1O	Unstable	–	–	–	–	–	–	–	–
COc1cc(/C=C/c2ccccc2)cc(OC)c1 [3,5-O-DIMETHYLPINOSYLVIN]	Unstable	–	–	–	–	–	–	–	–
COc1ccc(/C=C/c2cc(OC)cc(OC)c2)cc1 [TRISMETHOXYRESVERATROL]	–	0.82	0.85	0.31	-0.15	< 5	< 5	< 5	5

Further lines, with some results ahead:

Stability [1]	Ratio [2]	Ratio [3]	Ratio [8]	Ratio [9]	SMILES	Ratio (Thymocyte [4])	Ratio (Thymocyte [5])	Ratio (Thymocyte [6])	Ratio (Thymocyte [7])
Unstable	–	–	–	–	Nc1ccc(/C=C/c2cc(O)cc(O)c2)cc1	–	–	–	–
Unstable	–	–	–	–	COc1cc(/C=C/c2ccc(Cl)cc2)cc(OC)c1	–	–	–	–
–	1.7	–	–	–	Oc1ccc(/C=C/c2cc(O)ccc2O)cc1	< 5	> 10	> 10	> 10
–	2.2	1.3	-0.3	–	Oc1ccc(/C=C/c2ccc(O)c(O)c2)cc1	< 5	< 5	< 5	> 10
–	1.2	1.3	0.4	–	Oc1cc(O)cc(/C=C/c2ccccc2O)c1	< 5	< 5	< 5	> 10
–	0.56	0.47	–	–	Oc1cc(O)cc(/C=C/c2ccc(Cl)cc2)c1	5	5	> 10	> 10
–	0.94	1.06	0.11	–	Cc1ccc(/C=C/c2cc(O)cc(O)c2)cc1	< 5	< 5	> 10	< 5
Unstable	–	–	–	–	CC(=O)Nc1ccc(/C=C/c2cc(O)cc(O)c2)cc1	–	–	–	–
–	0.89	0.81	-0.22	–	Oc1cc(O)cc(/C=C/c2ccc(F)cc2)c1	< 5	< 5	< 5	> 10
–	1.14	1.01	0.91	–	CC(=O)Oc1ccc(/C=C/c2cc(O)cc(O)c2)cc1	< 5	< 5	< 5	> 10
–	0.9	0.9	0.3	–	Oc1cccc(/C=C/c2cc(O)cc(O)c2)c1	< 5	< 5	< 5	> 10
–	1.4	1.2	1.6	0.6	Oc1ccc(/C=C/c2cccc(O)c2)cc1 [(E)-3,4'-STILBENDIOL]	< 5	< 5	< 5	< 5
Unstable	–	–	–	–	Oc1cc(O)cc(/C=C/c2ccccc2)c1 [PINOSYLVIN]	–	–	–	–
–	0.93	1.06	0.59	-0.34	Oc1ccc(/C=C/c2cc(O)cc(O)c2)cc1 [RESVERATROL]	< 5	< 5	< 5	< 5
–	0.6	1.1	1.2	1.1	Oc1ccc(/C=C/c2ccc(O)cc2)cc1 [TRANS-4,4'-DIHYDROXYSTILBENE]	< 5	< 5	< 5	< 5
